Tested on: human umbilical vein endothelial cells (HUVEC)
Experiment: HUVEC proliferation quantified by BrdU incorporation
Assay type: cell-based
Settings: HUVEC; for IC50: read-out: IC50 HUVEC
Description: Determination of the Proliferation Inhibition by Inhibitors of Methionine Aminopeptidase 2 in the BrdU Proliferation Test (Cellular Assay)
After detachment of the cells by means of trypsin/EDTA, the number of living cells is determined, and the cells are sown in a density of 1000 cells per cavity in a total volume of 175 μl (cavities are coated in advance either with supplemented culture medium for 1-2 hours at 37° C. or with 1.5% gelatine for 0.5-2 hours at 37° C.). After cultivation for 24 hours, the test substances are added in various concentrations (for example final concentrations 30 μM to 0.03 nM in 10-fold dilution steps) and a volume of 25 μl. The DMSO concentration is kept constant at 0.3%. […] To this end, the cells are treated with a fixative for 30 min at room temperature and subsequently incubated with a peroxidase-labelled anti-BrdU antibody (diluted 1:100 in antibody dilution buffer) for 60 min at room temperature. […] The colour development is stopped after 15 min by addition of 25 μl of a 1M sulfuric acid solution. […] The controls used are cavities containing DMSO-treated cells (100% control) or empty cavities (blank value).
HUVEC Proliferation Quantified by BrdU Incorporation
HUVEC Means Human Umbilical Vein Endothelial Cells
HUVEC proliferation is measured after a 5 day incubation period using incorporation of BrdU as a measure of cell cycle activity. Cells are incubated in the presence or absence of test substances. During the last 18 to 24 hours of the incubation period BrdU is added to the medium. BrdU is incorporated into the DNA as the cells progress through S-phase (DNA synthesis) of the cell cycle. The cells are fixed and the amount of BrdU incorporated can be quantified using a commercial ELISA for detection of BrdU.
HUVEC are routinely cultured in EGM MV medium and used between passages 3 and 8.
All substances are run in triplicate.
Reference compounds are run in every assay.
Data is analyzed using the Assay Explorer program. Briefly, the blank is subtracted from all values, the triplicates are averaged and normalized to the untreated. EC50 is determined from a 4-parameter general sigmoidal curve (Hill fit y=(s0−slnf)/(1+(x/AC50)^nHill)+slnf) in Assay Explorer, Symyx). The processed data (EC50 or % Effect if no EC50 if reached, Efficacy) is uploaded directly from Assay Explorer to the MSRDB.

| SMILES | IC50 [nM] | EC50 (reference compounds run in every assay, expected value, read-out: expected value (EC50) of reference compound) [nM] |
| --- | --- | --- |
| O=C(NCc1cc(F)cc(F)c1)[C@@]1(O)CCN(c2ccc3[nH]ncc3c2)C1=O [Compound A75, (S)-3-Hydroxy-1-(1H-indazol-5-yl)-2-oxo-pyrrolidine-3-carboxylic acid 3,5-difluoro-benzylamide] | 42 | – |
| COc1ccc(Cn2ccc3cc(N4CC[C@](O)(C(=O)NCc5cc(F)cc(F)c5)C4=O)cnc32)cc1 [Compound A76] | 260 | – |
| O=C(NCc1cc(F)cc(F)c1)[C@@]1(O)CCN(c2cnc3[nH]ccc3c2)C1=O [Compound A78] | 35 | – |
| O=C(NCc1cc(F)cc(F)c1)[C@@]1(O)CCN(c2cnc3[nH]cc(Cl)c3c2)C1=O [Compound A79] | 6.5 | – |
| C[S@](=N)(=O)c1cccc(N2CC[C@](O)(C(=O)NCc3cc(F)cc(Cl)c3)C2=O)c1 [Compound A81] | 540 | – |
| C[S@@](=N)(=O)c1cccc(N2CC[C@](O)(C(=O)NCc3cc(F)cc(Cl)c3)C2=O)c1 [Compound A82] | 310 | – |
| NC(=O)c1ccc2cc(N3CCC(O)(C(=O)NCc4cc(F)cc(Cl)c4)C3=O)ccc2n1 (stereo not shown) [Compound A83] | 500 | – |
| O=C(NCc1cc(F)cc(Cl)c1)[C@@]1(O)C(=O)N(c2ccccc2)C[C@@H]1O [Compound A87] | 2300 | – |
| O=C(NCc1cc(F)cc(F)c1)[C@@]1(O)CCN(c2cnc3[nH]cc(F)c3c2)C1=O [Compound A89] | 32 | – |
| CO[C@@H]1[C@H](OC(=O)NC(=O)CCl)CC[C@]2(CO2)[C@H]1[C@@]1(C)O[C@@H]1CC=C(C)C [MSC1902850A, TNP-470, reference compound] | – | 0.8 |
